PMC7613998, “Development of selective inhibitors of phosphatidylinositol 3-kinase C2α” (Nature Chemical Biology, 2022)

Assays:
Assay in all cases: biochemical
Design in all cases: SelectScreen LanthaScreen kinase binding assay, per cent tracer displacement, mean of two points
Settings in all cases: tracer displacement
[1] = target: T1, ADCK3 (Homo sapiens, UniProt Q8NI60)
T1 construct: gene COQ8A

[2] = target: CAMKK2 (CaMKK beta) (Homo sapiens, UniProt Q96RR4)
[3] = target: CDK16 (PCTK1)/cyclin Y (Homo sapiens, UniProt Q00536)
[4] = target: CDK2/cyclin O (Homo sapiens, UniProt P24941)
[5] = target: CDK9/cyclin K (Homo sapiens, UniProt P50750)
[6] = target: KIT V559D T670I (Homo sapiens, UniProt P10721, T670I/V559D)
[7] = target: T2, STK17B (DRAK2) (Homo sapiens, UniProt O94768)
T2 sequence (O94768 1-372): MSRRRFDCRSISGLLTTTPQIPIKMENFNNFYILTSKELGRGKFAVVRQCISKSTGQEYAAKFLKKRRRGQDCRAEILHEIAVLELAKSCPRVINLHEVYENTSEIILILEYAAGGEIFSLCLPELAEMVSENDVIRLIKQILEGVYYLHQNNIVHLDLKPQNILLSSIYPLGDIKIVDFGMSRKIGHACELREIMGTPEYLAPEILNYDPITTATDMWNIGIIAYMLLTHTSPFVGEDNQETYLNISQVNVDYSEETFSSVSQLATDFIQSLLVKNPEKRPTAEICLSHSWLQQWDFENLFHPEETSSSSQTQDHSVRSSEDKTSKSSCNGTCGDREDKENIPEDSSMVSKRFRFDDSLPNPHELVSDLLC

[8] = target: STK32C (YANK3) (Homo sapiens, UniProt Q86UX6)
[9] = target: TNIK (Homo sapiens, UniProt Q9UKE5)
[10] = target: T3, ULK2 (Homo sapiens, UniProt Q8IYT8)
T3 sequence (Q8IYT8 1-1036): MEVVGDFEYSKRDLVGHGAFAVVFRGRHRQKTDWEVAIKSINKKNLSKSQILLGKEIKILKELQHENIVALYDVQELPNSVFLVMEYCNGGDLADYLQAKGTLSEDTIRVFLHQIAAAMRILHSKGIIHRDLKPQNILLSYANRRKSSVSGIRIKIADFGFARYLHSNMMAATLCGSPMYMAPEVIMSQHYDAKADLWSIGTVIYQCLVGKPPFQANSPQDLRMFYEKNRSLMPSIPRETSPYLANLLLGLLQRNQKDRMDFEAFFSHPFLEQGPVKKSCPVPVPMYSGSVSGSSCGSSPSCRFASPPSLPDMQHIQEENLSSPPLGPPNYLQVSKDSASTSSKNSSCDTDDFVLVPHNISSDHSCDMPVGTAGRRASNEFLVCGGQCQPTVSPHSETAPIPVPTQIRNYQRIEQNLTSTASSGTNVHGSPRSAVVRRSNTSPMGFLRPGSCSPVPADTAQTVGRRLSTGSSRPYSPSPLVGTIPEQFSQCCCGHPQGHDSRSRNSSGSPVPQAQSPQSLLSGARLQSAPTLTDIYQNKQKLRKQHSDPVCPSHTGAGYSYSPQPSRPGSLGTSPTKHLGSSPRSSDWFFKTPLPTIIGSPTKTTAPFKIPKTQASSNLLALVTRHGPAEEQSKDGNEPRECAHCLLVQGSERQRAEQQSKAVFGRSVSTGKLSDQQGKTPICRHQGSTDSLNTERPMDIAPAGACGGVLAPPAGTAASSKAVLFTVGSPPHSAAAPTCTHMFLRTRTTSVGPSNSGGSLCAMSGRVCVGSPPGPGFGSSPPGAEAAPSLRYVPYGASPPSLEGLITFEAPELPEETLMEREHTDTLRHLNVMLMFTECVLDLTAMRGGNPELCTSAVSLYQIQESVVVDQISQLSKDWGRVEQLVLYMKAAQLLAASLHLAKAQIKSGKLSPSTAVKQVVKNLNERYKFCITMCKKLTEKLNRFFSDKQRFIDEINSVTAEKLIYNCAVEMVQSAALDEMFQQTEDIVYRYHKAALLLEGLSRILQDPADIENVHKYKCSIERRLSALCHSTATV

[11] = target: WNK1 (Homo sapiens, UniProt Q9H4A3)

CDK9/cyclin K, sequence (P50750 whole entry): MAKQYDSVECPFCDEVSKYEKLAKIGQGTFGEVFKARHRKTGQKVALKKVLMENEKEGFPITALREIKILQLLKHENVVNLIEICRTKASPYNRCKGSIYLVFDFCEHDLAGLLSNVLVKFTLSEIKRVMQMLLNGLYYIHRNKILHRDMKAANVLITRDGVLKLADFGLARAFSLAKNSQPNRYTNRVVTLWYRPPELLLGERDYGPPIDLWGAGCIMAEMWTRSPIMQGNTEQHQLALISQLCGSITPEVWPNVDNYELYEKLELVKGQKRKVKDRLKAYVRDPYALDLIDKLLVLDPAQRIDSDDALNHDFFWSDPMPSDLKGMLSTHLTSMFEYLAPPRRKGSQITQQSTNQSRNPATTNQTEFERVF
CDK9/cyclin K, sequence (O75909 whole entry partner): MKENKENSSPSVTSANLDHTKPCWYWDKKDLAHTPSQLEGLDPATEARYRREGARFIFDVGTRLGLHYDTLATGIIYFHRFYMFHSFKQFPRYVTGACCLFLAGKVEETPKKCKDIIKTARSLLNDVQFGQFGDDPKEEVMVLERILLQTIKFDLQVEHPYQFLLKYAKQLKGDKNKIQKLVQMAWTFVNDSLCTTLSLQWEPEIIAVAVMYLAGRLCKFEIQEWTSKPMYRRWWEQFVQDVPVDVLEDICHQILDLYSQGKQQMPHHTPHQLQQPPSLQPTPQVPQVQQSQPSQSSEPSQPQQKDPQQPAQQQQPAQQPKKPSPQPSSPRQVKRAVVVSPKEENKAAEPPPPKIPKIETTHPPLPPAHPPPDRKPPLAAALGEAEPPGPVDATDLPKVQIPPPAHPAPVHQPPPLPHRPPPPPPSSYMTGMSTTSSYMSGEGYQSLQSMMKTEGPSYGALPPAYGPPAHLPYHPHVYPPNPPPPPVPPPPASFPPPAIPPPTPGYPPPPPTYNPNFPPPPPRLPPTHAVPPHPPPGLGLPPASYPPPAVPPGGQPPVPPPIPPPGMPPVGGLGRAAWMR
STK32C (YANK3), sequence (Q86UX6 whole entry): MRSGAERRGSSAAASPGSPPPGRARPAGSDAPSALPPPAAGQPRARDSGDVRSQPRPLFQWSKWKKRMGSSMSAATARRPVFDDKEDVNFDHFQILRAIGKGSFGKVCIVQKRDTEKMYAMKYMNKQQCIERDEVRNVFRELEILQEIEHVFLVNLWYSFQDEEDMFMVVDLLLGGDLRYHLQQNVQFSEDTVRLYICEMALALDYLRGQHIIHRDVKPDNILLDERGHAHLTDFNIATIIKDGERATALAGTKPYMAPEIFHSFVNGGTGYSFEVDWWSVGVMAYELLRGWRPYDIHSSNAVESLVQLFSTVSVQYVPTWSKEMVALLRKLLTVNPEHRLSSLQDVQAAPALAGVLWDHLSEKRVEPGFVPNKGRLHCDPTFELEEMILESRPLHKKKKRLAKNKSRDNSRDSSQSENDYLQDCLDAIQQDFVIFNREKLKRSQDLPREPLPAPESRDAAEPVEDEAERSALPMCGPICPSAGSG
TNIK, sequence (Q9UKE5 whole entry): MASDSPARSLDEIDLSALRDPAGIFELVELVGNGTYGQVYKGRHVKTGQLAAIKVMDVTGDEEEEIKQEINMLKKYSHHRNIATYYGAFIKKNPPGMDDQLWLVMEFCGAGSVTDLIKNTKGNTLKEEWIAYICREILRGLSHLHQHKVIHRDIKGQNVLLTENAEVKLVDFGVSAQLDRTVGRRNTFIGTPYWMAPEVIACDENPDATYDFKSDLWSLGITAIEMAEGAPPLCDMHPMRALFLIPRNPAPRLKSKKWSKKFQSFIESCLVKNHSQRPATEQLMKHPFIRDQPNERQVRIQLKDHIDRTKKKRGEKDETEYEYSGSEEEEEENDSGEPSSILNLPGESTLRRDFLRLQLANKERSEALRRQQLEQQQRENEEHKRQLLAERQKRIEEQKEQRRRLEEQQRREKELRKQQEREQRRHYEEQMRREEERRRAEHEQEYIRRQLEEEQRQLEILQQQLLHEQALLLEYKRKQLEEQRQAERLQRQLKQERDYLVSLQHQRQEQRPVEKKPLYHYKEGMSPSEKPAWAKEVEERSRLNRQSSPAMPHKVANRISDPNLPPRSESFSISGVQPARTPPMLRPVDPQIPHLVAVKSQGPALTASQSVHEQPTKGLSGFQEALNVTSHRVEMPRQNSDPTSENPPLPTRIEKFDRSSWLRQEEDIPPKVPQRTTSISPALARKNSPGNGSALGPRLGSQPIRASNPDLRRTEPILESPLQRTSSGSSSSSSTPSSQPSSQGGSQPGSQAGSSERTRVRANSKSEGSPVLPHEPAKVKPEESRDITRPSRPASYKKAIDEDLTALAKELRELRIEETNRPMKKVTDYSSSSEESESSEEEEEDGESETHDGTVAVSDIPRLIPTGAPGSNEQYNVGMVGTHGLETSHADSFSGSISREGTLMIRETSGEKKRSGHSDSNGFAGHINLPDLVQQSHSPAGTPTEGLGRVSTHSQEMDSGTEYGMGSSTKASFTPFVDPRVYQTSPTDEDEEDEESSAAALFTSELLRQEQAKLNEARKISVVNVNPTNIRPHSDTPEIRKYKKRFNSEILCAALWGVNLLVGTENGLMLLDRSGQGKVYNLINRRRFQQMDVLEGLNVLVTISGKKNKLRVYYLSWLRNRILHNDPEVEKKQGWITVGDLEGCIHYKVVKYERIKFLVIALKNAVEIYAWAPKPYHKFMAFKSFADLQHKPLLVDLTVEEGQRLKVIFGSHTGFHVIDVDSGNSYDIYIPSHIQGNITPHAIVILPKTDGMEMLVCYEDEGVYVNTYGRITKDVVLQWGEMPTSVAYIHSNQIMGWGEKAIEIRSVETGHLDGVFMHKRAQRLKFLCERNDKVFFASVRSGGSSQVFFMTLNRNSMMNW
T1 sequence (Q8NI60 whole entry): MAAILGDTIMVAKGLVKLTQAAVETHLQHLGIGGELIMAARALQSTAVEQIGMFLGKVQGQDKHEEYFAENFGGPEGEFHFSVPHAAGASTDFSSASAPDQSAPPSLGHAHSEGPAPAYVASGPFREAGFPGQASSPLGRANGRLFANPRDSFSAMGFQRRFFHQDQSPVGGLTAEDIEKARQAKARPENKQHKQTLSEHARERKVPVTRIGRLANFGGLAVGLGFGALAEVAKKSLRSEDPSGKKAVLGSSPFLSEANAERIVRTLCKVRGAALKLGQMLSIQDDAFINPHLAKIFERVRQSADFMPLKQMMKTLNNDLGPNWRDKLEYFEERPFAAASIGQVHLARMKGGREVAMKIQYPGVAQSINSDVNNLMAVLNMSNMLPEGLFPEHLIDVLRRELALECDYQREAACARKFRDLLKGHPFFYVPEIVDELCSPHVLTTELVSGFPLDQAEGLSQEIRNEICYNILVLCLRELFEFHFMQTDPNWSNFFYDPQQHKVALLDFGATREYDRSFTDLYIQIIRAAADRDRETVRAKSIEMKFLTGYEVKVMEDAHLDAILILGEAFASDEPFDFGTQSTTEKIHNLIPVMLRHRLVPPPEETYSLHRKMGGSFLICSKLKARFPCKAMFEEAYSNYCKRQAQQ
CDK16 (PCTK1)/cyclin Y, sequence (Q00536 whole entry): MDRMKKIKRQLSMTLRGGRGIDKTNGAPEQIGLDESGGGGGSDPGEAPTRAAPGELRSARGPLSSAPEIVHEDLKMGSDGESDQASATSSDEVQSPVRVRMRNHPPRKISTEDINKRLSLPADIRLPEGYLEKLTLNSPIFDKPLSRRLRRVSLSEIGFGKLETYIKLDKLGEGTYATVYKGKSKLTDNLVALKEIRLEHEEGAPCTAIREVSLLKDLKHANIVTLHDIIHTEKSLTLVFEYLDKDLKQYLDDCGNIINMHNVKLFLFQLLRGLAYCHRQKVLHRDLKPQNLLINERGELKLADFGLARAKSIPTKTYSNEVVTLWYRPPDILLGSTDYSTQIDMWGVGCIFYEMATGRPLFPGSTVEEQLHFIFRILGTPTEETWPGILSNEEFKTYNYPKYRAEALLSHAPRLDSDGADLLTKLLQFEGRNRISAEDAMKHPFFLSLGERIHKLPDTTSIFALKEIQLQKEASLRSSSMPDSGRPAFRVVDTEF
CDK16 (PCTK1)/cyclin Y, sequence (Q8ND76 whole entry partner): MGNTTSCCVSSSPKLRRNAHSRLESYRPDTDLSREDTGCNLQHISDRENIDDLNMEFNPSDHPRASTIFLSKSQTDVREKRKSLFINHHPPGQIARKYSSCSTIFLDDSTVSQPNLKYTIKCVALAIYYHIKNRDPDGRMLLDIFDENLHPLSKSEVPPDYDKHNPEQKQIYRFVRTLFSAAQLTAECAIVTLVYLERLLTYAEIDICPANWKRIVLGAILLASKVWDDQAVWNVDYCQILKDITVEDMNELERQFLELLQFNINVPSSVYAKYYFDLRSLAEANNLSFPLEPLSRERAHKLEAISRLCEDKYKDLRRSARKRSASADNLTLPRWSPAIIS
CAMKK2 (CaMKK beta), sequence (Q96RR4 whole entry): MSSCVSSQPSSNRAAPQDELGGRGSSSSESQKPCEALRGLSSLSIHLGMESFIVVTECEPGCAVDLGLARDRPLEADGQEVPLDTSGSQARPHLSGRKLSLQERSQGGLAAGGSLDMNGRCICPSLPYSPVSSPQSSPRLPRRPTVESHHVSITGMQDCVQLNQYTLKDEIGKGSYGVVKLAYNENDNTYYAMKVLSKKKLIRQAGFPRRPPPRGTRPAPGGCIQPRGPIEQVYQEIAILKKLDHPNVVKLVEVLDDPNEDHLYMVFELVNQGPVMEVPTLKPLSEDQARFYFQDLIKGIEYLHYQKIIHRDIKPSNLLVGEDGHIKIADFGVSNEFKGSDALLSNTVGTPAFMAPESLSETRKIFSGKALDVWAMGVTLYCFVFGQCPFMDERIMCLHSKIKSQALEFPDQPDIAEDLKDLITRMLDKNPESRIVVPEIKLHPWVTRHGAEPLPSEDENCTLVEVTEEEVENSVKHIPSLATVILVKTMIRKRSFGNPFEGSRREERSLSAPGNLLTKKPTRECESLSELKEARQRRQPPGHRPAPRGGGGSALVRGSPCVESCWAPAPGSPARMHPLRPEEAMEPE

Compound | inhibition at 1 µM [1] | inhibition at 3 µM [1] | inhibition at 10 µM [1] | inhibition at 1 µM [2] | inhibition at 3 µM [2] | inhibition at 10 µM [2] | inhibition at 1 µM [3] | inhibition at 3 µM [3] | inhibition at 10 µM [3] | inhibition at 1 µM [4] | inhibition at 3 µM [4] | inhibition at 10 µM [4] | inhibition at 1 µM [5] | inhibition at 3 µM [5] | inhibition at 10 µM [5] | inhibition at 1 µM [6] | inhibition at 3 µM [6] | inhibition at 10 µM [6] | inhibition at 1 µM [7] | inhibition at 3 µM [7] | other results
O=C(CSc1nc2nccnc2c(=O)n1CCc1ccccc1)Nc1nccs1 [compound 1, PITCOIN1] | -3.76% | 8.79% | 13.7% | -0.673% | -0.395% | 3.84% | -6.54% | -14.5% | -1.48% | 17.6% | -4.45% | 7.96% | -2.66% | -5.46% | -1.18% | -4.48% | 0.47% | 6.38% | -6.01% | 2.55% | inhibition at 10 µM [7]: 4.06%; inhibition at 1 µM [8]: -7%; inhibition at 3 µM [8]: -1.98%; inhibition at 10 µM [8]: -5.28%; inhibition at 1 µM [9]: -4.88%; inhibition at 3 µM [9]: -3.23%; inhibition at 10 µM [9]: -2.09%; inhibition at 1 µM [10]: -4.11%; inhibition at 3 µM [10]: -4.09%; inhibition at 10 µM [10]: -1.99%; inhibition at 1 µM [11]: -6.21%; inhibition at 3 µM [11]: -5.06%; inhibition at 10 µM [11]: -3.46%
CS(=O)(=O)Nc1cccc(-c2csc(NC(=O)CSc3nc4nccnc4c(=O)n3CCc3ccccc3)n2)c1 [compound 3, PITCOIN3] | 8.78% | 18.3% | 9.67% | 2.3% | 4.67% | 4.93% | 3.53% | -5.28% | -6.76% | 18.1% | 11.6% | 2.75% | 0.179% | -3.08% | -7.54% | -12.1% | 0.144% | 1.37% | -7.55% | -5.4% | inhibition at 10 µM [7]: 11.1%; inhibition at 1 µM [8]: 8.19%; inhibition at 3 µM [8]: -2.39%; inhibition at 10 µM [8]: -8.61%; inhibition at 1 µM [9]: 4.57%; inhibition at 3 µM [9]: 2.17%; inhibition at 10 µM [9]: -4.46%; inhibition at 1 µM [10]: -2.32%; inhibition at 3 µM [10]: -0.489%; inhibition at 10 µM [10]: 2.18%; inhibition at 1 µM [11]: -2.33%; inhibition at 3 µM [11]: -3.62%; inhibition at 10 µM [11]: 0.594%
